“And” between values parts separate entries of the source, which are not always exact repeats. Equal entries are not always repeated. Toxic doses and inconclusive results are not listed. Rule as the data show it: active = T/C of 150% or more; inactive = T/C below 125%.
Tested on: L1210 leukemia ip in BDF1 mice, survival T/C
Test: NCI In Vivo Anticancer Drug Screen. Data for tumor model L1210 Leukemia (intraperitoneal) in B6D2F1 (BDF1) mice
Details: endpoint: mean survival time, higher = longer survival
Method in brief: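 Read-out is survival time, reported as the treated-group measurement over the vehicle-control measurement.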

[1] = dose: 100.0 mg/kg/injection, schedule: Q04DX003 (ip), vehicle: saline with Tween-80
[2] = dose: 200.0 mg/kg/injection, schedule: Q04DX003 (ip), vehicle: saline with Tween-80
[3] = dose: 400.0 mg/kg/injection, schedule: Q04DX003 (ip), vehicle: saline with Tween-80
[4] = dose: 100.0 mg/kg/injection, schedule: Q01DX001 (ip), vehicle: saline with Tween-80
[5] = dose: 200.0 mg/kg/injection, schedule: Q01DX001 (ip), vehicle: saline with Tween-80
[6] = dose: 400.0 mg/kg/injection, schedule: Q01DX001 (ip), vehicle: saline with Tween-80
[7] = dose: 100.0 mg/kg/injection, schedule: Q01DX001 (ip), vehicle: saline
[8] = dose: 400.0 mg/kg/injection, schedule: Q01DX001 (ip), vehicle: saline
[9] = dose: 10.0 mg/kg/injection, schedule: Q01DX001 (ip), vehicle: carboxymethylcellulose (CMC)
[10] = dose: 20.0 mg/kg/injection, schedule: Q01DX001 (ip), vehicle: carboxymethylcellulose (CMC)
[11] = dose: 40.0 mg/kg/injection, schedule: Q01DX001 (ip), vehicle: carboxymethylcellulose (CMC)

Measured: T/C

CNC(Cc1ccc(OCc2ccccc2)cc1)C(=O)NC(CO)CC(C)C (stereo unspecified)
inactive: [1] 102 % of control | [2] 96 % of control | [3] 105 % of control

COC(=O)C(Cc1ccccc1)NC(=O)C(C)NC(=O)OCc1ccccc1 (stereo unspecified)
inactive: dose: 100.0 mg/kg/injection, schedule: Q04DX002 (ip), vehicle: Klucel (hydroxypropylcellulose) (HPC) 105 % of control | dose: 130.0 mg/kg/injection, schedule: Q04DX002 (ip), vehicle: Klucel (hydroxypropylcellulose) (HPC) 100 % of control and 86 % of control | dose: 200.0 mg/kg/injection, schedule: Q04DX002 (ip), vehicle: Klucel (hydroxypropylcellulose) (HPC) 100 % of control | dose: 300.0 mg/kg/injection, schedule: Q04DX002 (ip), vehicle: Klucel (hydroxypropylcellulose) (HPC) 100 % of control and 103 % of control | dose: 400.0 mg/kg/injection, schedule: Q04DX002 (ip), vehicle: Klucel (hydroxypropylcellulose) (HPC) 108 % of control

O=C(NCc1ccccc1)C1C2C=CC(C2)C1C(=O)NCc1ccccc1 (stereo unspecified)
inactive: [1] 96 % of control | [2] 91 % of control | [3] 91 % of control

CCOC(=O)CCSCCC(=O)OCC
inactive: [4] 109 % of control | [5] 101 % of control | [6] 101 % of control

Nc1nc2ncsc2c(=O)[nH]1
inactive: [4] 89 % of control | [5] 89 % of control | [6] 102 % of control

CN(CCO)CC(O)Cn1cnc2c1c(=O)n(C)c(=O)n2C (stereo unspecified) (tested in a mixture with another compound)
inactive: [7] 108 % of control | dose: 200.0 mg/kg/injection, schedule: Q01DX001 (ip), vehicle: saline 112 % of control | [8] 104 % of control

CO[As](OC)c1ccc(N=Nc2ccc(N(C)C)cc2)cc1
inactive: dose: 1.56 mg/kg/injection, schedule: Q04DX003 (ip), vehicle: Klucel (hydroxypropylcellulose) (HPC) 100 % of control | dose: 3.13 mg/kg/injection, schedule: Q04DX003 (ip), vehicle: Klucel (hydroxypropylcellulose) (HPC) 100 % of control | dose: 6.25 mg/kg/injection, schedule: Q04DX003 (ip), vehicle: Klucel (hydroxypropylcellulose) (HPC) 92 % of control

CN1CCCCCCCC(=O)C(OC(=O)c2ccc([N+](=O)[O-])cc2)CCCCCCC1 (stereo unspecified)
inactive: dose: 50.0 mg/kg/injection, schedule: Q01DX001 (ip), vehicle: carboxymethylcellulose (CMC) 95 % of control | dose: 100.0 mg/kg/injection, schedule: Q01DX001 (ip), vehicle: carboxymethylcellulose (CMC) 97 % of control | dose: 200.0 mg/kg/injection, schedule: Q01DX001 (ip), vehicle: carboxymethylcellulose (CMC) 95 % of control | dose: 400.0 mg/kg/injection, schedule: Q01DX001 (ip), vehicle: carboxymethylcellulose (CMC) 95 % of control

CSc1nc2ccc(S(=O)(=O)O)cc2s1
inactive: dose: 50.0 mg/kg/injection, schedule: Q01DX009 (ip), vehicle: Klucel (hydroxypropylcellulose) (HPC) 104 % of control | dose: 100.0 mg/kg/injection, schedule: Q01DX009 (ip), vehicle: Klucel (hydroxypropylcellulose) (HPC) 96 % of control | dose: 200.0 mg/kg/injection, schedule: Q01DX009 (ip), vehicle: Klucel (hydroxypropylcellulose) (HPC) 97 % of control

Cc1cc(O)ccc1C1=NCC(C)(C)S1
inactive: dose: 100.0 mg/kg/injection, schedule: Q04DX002 (ip), vehicle: saline 93 % of control | dose: 200.0 mg/kg/injection, schedule: Q04DX002 (ip), vehicle: saline 100 % of control | dose: 400.0 mg/kg/injection, schedule: Q04DX002 (ip), vehicle: saline 103 % of control

Cc1c2ccccc2cc2cc[n+]3ccccc3c12
inactive: dose: 1.0 mg/kg/injection, schedule: Q01DX015 (ip), vehicle: carboxymethylcellulose (CMC) 102 % of control | dose: 2.0 mg/kg/injection, schedule: Q01DX015 (ip), vehicle: carboxymethylcellulose (CMC) 104 % of control | dose: 4.0 mg/kg/injection, schedule: Q01DX015 (ip), vehicle: carboxymethylcellulose (CMC) 98 % of control | dose: 5.0 mg/kg/injection, schedule: Q01DX001 (ip), vehicle: carboxymethylcellulose (CMC) 101 % of control | dose: 8.0 mg/kg/injection, schedule: Q01DX015 (ip), vehicle: carboxymethylcellulose (CMC) 102 % of control and 119 % of control | [9] 101 % of control | dose: 16.0 mg/kg/injection, schedule: Q01DX015 (ip), vehicle: carboxymethylcellulose (CMC) 111 % of control | [10] 110 % of control | dose: 20.0 mg/kg/injection, schedule: Q04DX003 (ip), vehicle: Klucel (hydroxypropylcellulose) (HPC) 110 % of control | [11] 117 % of control | dose: 40.0 mg/kg/injection, schedule: Q04DX003 (ip), vehicle: Klucel (hydroxypropylcellulose) (HPC) 114 % of control

CCOC(=O)C(N)CCSSCCC(N)C(=O)OCC (stereo unspecified)
inactive: dose: 177.0 mg/kg/injection, schedule: Q01DX001 (ip), vehicle: saline 92 % of control | dose: 267.0 mg/kg/injection, schedule: Q01DX001 (ip), vehicle: saline 92 % of control | [8] 95 % of control | dose: 600.0 mg/kg/injection, schedule: Q01DX001 (ip), vehicle: saline 104 % of control

Cc1nc[nH]c(=O)c1CCC(C)C
inactive: dose: 100.0 mg/kg/injection, schedule: Q01DX001 (ip), vehicle: Klucel (hydroxypropylcellulose) (HPC) 107 % of control | dose: 200.0 mg/kg/injection, schedule: Q01DX001 (ip), vehicle: Klucel (hydroxypropylcellulose) (HPC) 105 % of control | dose: 400.0 mg/kg/injection, schedule: Q01DX001 (ip), vehicle: Klucel (hydroxypropylcellulose) (HPC) 100 % of control

[O]=[Sn]1[O][Bi]([O][Sn](=[O])[O][Bi]2[O][Sn](=[O])[O]2)[O]1
inactive: dose: 100.0 mg/kg/injection, schedule: Q01DX009 (ip), vehicle: saline 94 % of control | dose: 200.0 mg/kg/injection, schedule: Q01DX009 (ip), vehicle: saline 94 % of control | dose: 400.0 mg/kg/injection, schedule: Q01DX009 (ip), vehicle: saline 92 % of control

CCN(CC)Cc1c(O)ccc2c3c(c(=O)oc12)CCCC3
inactive: [9] 103 % of control | [10] 97 % of control | [11] 94 % of control | dose: 80.0 mg/kg/injection, schedule: Q01DX001 (ip), vehicle: carboxymethylcellulose (CMC) 96 % of control

CCN(CC)CCC(CC=C(C)C)(C(N)=O)c1cccc2ccccc12 (stereo unspecified)
inactive: dose: 5.0 mg/kg/injection, schedule: Q04DX003 (ip), vehicle: saline with Tween-80 98 % of control | dose: 10.0 mg/kg/injection, schedule: Q04DX003 (ip), vehicle: saline with Tween-80 100 % of control | dose: 20.0 mg/kg/injection, schedule: Q04DX003 (ip), vehicle: saline with Tween-80 109 % of control

CCOC(=O)c1ccc(NC(=O)CC(C)=O)cc1
inactive: [1] 103 % of control | [2] 101 % of control | [3] 97 % of control

Cc1cn(C2CC(O)C(CO)O2)c(=O)[nH]c1=O (stereo unspecified)
inactive: dose: 50.0 mg/kg/injection, schedule: Q03HX024 (ip), vehicle: saline 100 % of control | dose: 100.0 mg/kg/injection, schedule: Q03HX024 (ip), vehicle: saline 100 % of control | dose: 200.0 mg/kg/injection, schedule: Q03HX024 (ip), vehicle: saline 98 % of control | dose: 400.0 mg/kg/injection, schedule: Q03HX024 (ip), vehicle: saline 100 % of control

[Cl][Pd][Cl].[NH-]C1CCCC1.[NH-]C1CCCC1
inactive: dose: 6.25 mg/kg/injection, schedule: Q04DX002 (ip), vehicle: saline 102 % of control | dose: 12.5 mg/kg/injection, schedule: Q04DX002 (ip), vehicle: saline 105 % of control | dose: 25.0 mg/kg/injection, schedule: Q04DX002 (ip), vehicle: saline 97 % of control

Cc1ccc(Cl)cc1NC(=O)NCCCl
inactive: dose: 100.0 mg/kg/injection, schedule: Q04DX003 (ip), vehicle: Klucel (hydroxypropylcellulose) (HPC) 113 % of control | dose: 200.0 mg/kg/injection, schedule: Q04DX003 (ip), vehicle: Klucel (hydroxypropylcellulose) (HPC) 93 % of control

CS(=O)(=O)OCCNC[C@@H](O)[C@@H](O)CNCCOS(C)(=O)=O
inactive: dose: 0.8 mg/kg/injection, schedule: Q01DX001 (ip), vehicle: saline 101 % of control | dose: 1.4 mg/kg/injection, schedule: Q01DX001 (ip), vehicle: saline 112 % of control and 121 % of control | dose: 2.3 mg/kg/injection, schedule: Q01DX001 (ip), vehicle: saline 112 % of control and 123 % of control | dose: 6.5 mg/kg/injection, schedule: Q01DX001 (ip), vehicle: saline 122 % of control | [7] 108 % of control
active: dose: 18.0 mg/kg/injection, schedule: Q01DX001 (ip), vehicle: saline 161 % of control | dose: 30.0 mg/kg/injection, schedule: Q01DX001 (ip), vehicle: saline 151 % of control and 186 % of control | dose: 50.0 mg/kg/injection, schedule: Q01DX001 (ip), vehicle: saline 207 % of control
